# Measurements as given in ChEMBL document CHEMBL4364246, “Synthesis and biological evaluation of 5-aminoethyl benzophenanthridone derivatives as DNA topoisomerase IB inhibitors” (Eur J Med Chem, 2019).
# Active and inactive are the calls of the source. No cut-off for these calls is given here.
# Columns and labels:
# DU-145 = assay: cells; settings: Homo sapiens, DU-145, 72 h
# HCT-116 = assay: cells; settings: Homo sapiens, HCT-116, 72 h
# [1] = biological target: T1, DNA topoisomerase 1 (Homo sapiens) (UniProt P11387); assay: Inhibition of recombinant TOP1 (unknown origin) using 3'-[32P]-labeled 117 bp DNA oligonucleotide assessed as […] TOP1-mediated DNA cleavage incubated for 20 mins by PAGE analysis relative to 1 uM CPT
# T1 sequence (whole entry): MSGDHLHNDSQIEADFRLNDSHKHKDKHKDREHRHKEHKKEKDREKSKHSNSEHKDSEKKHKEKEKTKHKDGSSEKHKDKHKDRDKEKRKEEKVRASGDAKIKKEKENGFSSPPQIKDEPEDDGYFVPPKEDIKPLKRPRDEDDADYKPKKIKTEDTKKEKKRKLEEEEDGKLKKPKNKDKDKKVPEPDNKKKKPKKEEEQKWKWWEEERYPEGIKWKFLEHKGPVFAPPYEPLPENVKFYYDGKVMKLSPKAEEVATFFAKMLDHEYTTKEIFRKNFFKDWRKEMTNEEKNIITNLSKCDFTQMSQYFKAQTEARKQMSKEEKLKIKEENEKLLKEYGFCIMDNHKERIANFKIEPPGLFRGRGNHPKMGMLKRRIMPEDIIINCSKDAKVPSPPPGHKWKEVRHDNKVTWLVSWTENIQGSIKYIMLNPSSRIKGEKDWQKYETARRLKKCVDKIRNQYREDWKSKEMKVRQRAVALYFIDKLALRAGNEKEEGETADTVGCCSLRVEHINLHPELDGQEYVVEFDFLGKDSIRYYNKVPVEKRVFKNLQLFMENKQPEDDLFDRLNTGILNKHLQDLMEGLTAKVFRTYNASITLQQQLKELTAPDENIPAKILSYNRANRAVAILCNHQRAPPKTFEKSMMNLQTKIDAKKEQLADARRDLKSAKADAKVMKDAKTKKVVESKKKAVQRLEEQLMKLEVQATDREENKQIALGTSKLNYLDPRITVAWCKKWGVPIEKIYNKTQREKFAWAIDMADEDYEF
# A549 = assay: cells; settings: Homo sapiens, A549, 72 h
# MCF7 = assay: cells; settings: Homo sapiens, MCF7, 72 h
# [2] = biological target: T1, DNA topoisomerase 1 (Homo sapiens); assay: Inhibition of recombinant TOP1 (unknown origin) using 3'-[32P]-labeled 117 bp DNA oligonucleotide assessed as TOP1-mediated DNA cleavage by measuring induction and stabilization of cleavage sites 17, 35 and 79 at 1 uM incubated for 20 mins by PAGE analysis
# [3] = biological target: T1, DNA topoisomerase 1 (Homo sapiens); assay: Inhibition of TOP1 in human HCT116 cells assessed as induction of cellular TOP1cc formation incubated for 1 hr by chemiluminescence based assay; assay type: cell-based
# [4] = biological target: T1, DNA topoisomerase 1 (Homo sapiens); assay: Inhibition of TOP1 in human HCT116 cells assessed as induction of cellular TOP1cc formation at 25 uM incubated for 1 hr by chemiluminescence based assay; assay type: cell-based
# [5] = biological target: T1, DNA topoisomerase 1 (Homo sapiens); assay: Inhibition of TOP1 in human HCT116 cells assessed as induction of DNA damage by measuring increase in gammaH2AX foci at 1 uM incubated for 3 hrs by DAPI staining based immunofluorescence microscopic method; assay type: cell-based
# [6] = biological target: T1, DNA topoisomerase 1 (Homo sapiens); assay: Inhibition of recombinant TOP1 (unknown origin) using 3'-[32P]-labeled 117 bp DNA oligonucleotide assessed as TOP1-mediated DNA cleavage by measuring induction and stabilization of cleavage sites 17, 35 and 79 incubated for 20 mins by PAGE analysis
SMILES,GI50 (DU-145) [µM],GI50 (HCT-116) [µM],inhibition [1] [%],GI50 (A549) [µM],GI50 (MCF7) [µM],Activity [2],Activity [3],Activity [4],Activity [5],Activity [6]
COc1cc2c(=O)n(CCN(C)S(=O)(=O)C3CC3)c3c4cc5c(cc4ccc3c2cc1OC)OCO5,10,7.9,20 to 50,15,5.8,–,–,–,–,–
CC[C@@]1(O)C(=O)OCc2c1cc1n(c2=O)Cc2cc3ccccc3nc2-1,–,–,–,–,–,inactive,Dose-dependent effect,Active,Active,–
COc1cc2c(=O)n(CCNS(=O)(=O)N3CCCC3)c3c4cc5c(cc4ccc3c2cc1OC)OCO5,79,34,0 to 50,61,38,–,–,–,–,–
COc1cc2c(=O)n(CCN(C)S(=O)(=O)N(C)C)c3c4cc5c(cc4ccc3c2cc1OC)OCO5,15,0.96,20 to 50,7.9,1.5,–,–,–,–,–
COc1cc2c3c(n(CCCNCCO)c(=O)c2cc1OC)-c1cc2c(cc1C3=O)OCO2,–,–,–,–,–,Active,–,–,–,–
COc1cc2c(=O)n(CCNS(=O)(=O)N3CCOCC3)c3c4cc5c(cc4ccc3c2cc1OC)OCO5,1.6,1.1,50 to 75,2.9,0.89,–,–,–,–,Dose-dependent effect
COc1cc2c(=O)n(CCNP(=O)(OC)OC)c3c4cc5c(cc4ccc3c2cc1OC)OCO5,39,51,0 to 50,41,48,–,–,–,–,–
COc1cc2c(=O)n(C)c3c4cc5c(cc4ccc3c2cc1OC)OCO5,64,74,–,39,31,–,–,–,–,–
COc1cc2c(=O)n(CCNS(=O)(=O)N(C)C)c3c4cc5c(cc4ccc3c2cc1OC)OCO5,45,30,20 to 50,35,21,–,–,–,–,–
COc1cc2c(=O)n(CCN(C)P(=O)(OC)OC)c3c4cc5c(cc4ccc3c2cc1OC)OCO5,5.3,9.2,50 to 75,14,10,–,–,–,–,Dose-dependent effect
COc1cc2c(=O)n(CCNS(=O)(=O)C3CC3)c3c4cc5c(cc4ccc3c2cc1OC)OCO5,1.3,5.2,50 to 75,4.3,3,–,–,–,–,Dose-dependent effect
COc1cc2c(=O)n(CCN(C)S(=O)(=O)C(F)(F)F)c3c4cc5c(cc4ccc3c2cc1OC)OCO5,65,86,0 to 50,42,35,–,–,–,–,–
COc1cc2c(=O)n(CCNC(=O)C3CC3)c3c4cc5c(cc4ccc3c2cc1OC)OCO5,7.8,5.3,20 to 50,1.3,2.2,–,–,–,–,–
COc1cc2c(=O)n(CCN(C)S(=O)(=O)N3CCOCC3)c3c4cc5c(cc4ccc3c2cc1OC)OCO5,48,40,20 to 50,35,64,–,–,–,–,–
COc1cc2c(=O)n(CCN(C)P3(=O)OCCO3)c3c4cc5c(cc4ccc3c2cc1OC)OCO5,–,–,50 to 75,–,–,–,–,–,–,Dose-dependent effect
COc1cc2c(=O)n(CCN(C)S(=O)(=O)N3CCCC3)c3c4cc5c(cc4ccc3c2cc1OC)OCO5,3.1,2.5,20 to 50,5.3,3.8,–,–,–,–,–
